Assay results as given in the supplement of paper PMC9151546.
Counter-ions that a name gives are not always drawn.

Experiments:
CHO-K1 [1] = assay: benchmark concentration for 60% increase in hypodiploid frequency (BMC60); higher = less potent aneugen
Procedure, shortened: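 The benchmark concentration was derived in PROAST with Hill and exponential model families. The response for this fit was the percentage of hypodiploid nuclei measured by flow cytometry, with a benchmark response of a 60% increase over DMSO control and concentrations below 40% relative survival left out. CHO cells received 19 concentrations (4.50–200 µM; 1% DMSO vehicle) for 24 h at 37 °C without S9, or for 3–4 h with Aroclor 1254-induced rat liver S9 and then 24 h recovery.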

CHO-K1 [2] = assay: benchmark concentration for 30% increase in micronucleus frequency (BMC30); higher = less potent clastogen
Procedure: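 Benchmark concentration modelling (PROAST, Hill/exponential model families) of the 19-concentration flow-cytometric micronucleus assay in CHO-K1 cells, with and without rat liver S9. Only non-cytotoxic and adequate (relative survival >=40%) concentrations were used. BMR was a 30% increase in %MN (BMC30) or a 60% increase in %hypodiploid (BMC60) over control.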

[3] = S9 metabolic activation: with S9
[4] = S9 metabolic activation: without S9

| Compound | benchmark concentration (CHO-K1 [1]; [3]) | benchmark concentration (CHO-K1 [2]; [3]) | benchmark concentration (CHO-K1 [1]; [4]) | benchmark concentration (CHO-K1 [2]; [4]) |
| --- | --- | --- | --- | --- |
| Nc1ccn([C@@H]2O[C@H](CO)[C@@H](O)[C@@H]2O)c(=O)n1 [Cytarabine hydrochloride] | 27 µM | 5.9 µM | – | – |
| c1ccc(C2CO2)cc1 (centres undefined) [Styrene oxide] | – | – | 19 µM | 96 µM |
| Oc1ccccc1 [Phenol] | – | – | 57 µM | 100 µM |
| C#C[C@]1(O)CC[C@H]2[C@@H]3CCc4cc(O)ccc4[C@H]3CC[C@@]21C [17alpha-Ethinylestradiol] | – | 58 µM | < 4.5 µM | – |
| C[C@]12CC[C@@H]3c4ccc(O)cc4CC[C@H]3[C@@H]1CCC2=O [Estrone] | – | – | 5.3 µM | < 4.5 µM |
| Cc1cc(Cc2ccc(N)c(C)c2)ccc1N [4,4'-Methylenebis(2-methylaniline)] | – | – | 33 µM | 37 µM |
| NC1CCCCC1 [Cyclohexylamine] | – | – | 43 µM | 72 µM |
| O=[N+]([O-])c1ccc(O)c([N+](=O)[O-])c1 [2,4-Dinitrophenol] | – | – | 49 µM | 86 µM |
| Nc1ccc2c(c1)C(=O)c1ccccc1C2=O [2-Aminoanthraquinone] | 22 µM | 8.1 µM | 29 µM | – |
| Nc1ccc(Nc2ccccc2)cc1 [N-Phenyl-1,4-benzenediamine] | – | 87 µM | < 4.5 µM | – |
| CC(C)(c1ccc(O)cc1)c1ccc(O)cc1 [Bisphenol A] | – | – | 48 µM | 71 µM |
| C=CCOC(=O)c1ccccc1C(=O)OCC=C [Diallyl phthalate] | – | 61 µM | 65 µM | – |
| Oc1ccc(O)cc1 [Hydroquinone] | 90 µM | 63 µM | – | – |
| CCC(C)(C)c1ccc(O)cc1 [4-(2-Methylbutan-2-yl)phenol] | – | 81 µM | 140 µM | – |
| O=C(O)C1=NN(c2ccc(S(=O)(=O)O)cc2)C(=O)C1N=Nc1ccc(S(=O)(=O)O)cc1 (centres undefined) [FD&C Yellow 5] | – | 15 µM | 47 µM | 25 µM |
| Cc1ccccc1N [2-Methylaniline] | – | – | 49 µM | 21 µM |
